Test results published in patent US20240270762A1, “PENICILLIN-BINDING PROTEIN INHIBITORS” (priority 2021, published 2024).
≈ marks a conversion by molar mass, not a printed value. Where two headings read alike, the source gives them in different places.

Tests used:
[1] = molecular target: T1, PBP3 from Pseudomonas aeruginosa (PAO1) (Pseudomonas aeruginosa, UniProt G3XD46); test: Bocillin-FL fluorescence polarization competition binding, P. aeruginosa PBP3; settings: Binding affinity to P. aeruginosa PBP3; fluorescence polarization competition binding assay using Bocillin-FL; read-out: P. aeruginosa PBP3 Potency
T1 construct: made in house
T1 sequence (G3XD46 whole entry): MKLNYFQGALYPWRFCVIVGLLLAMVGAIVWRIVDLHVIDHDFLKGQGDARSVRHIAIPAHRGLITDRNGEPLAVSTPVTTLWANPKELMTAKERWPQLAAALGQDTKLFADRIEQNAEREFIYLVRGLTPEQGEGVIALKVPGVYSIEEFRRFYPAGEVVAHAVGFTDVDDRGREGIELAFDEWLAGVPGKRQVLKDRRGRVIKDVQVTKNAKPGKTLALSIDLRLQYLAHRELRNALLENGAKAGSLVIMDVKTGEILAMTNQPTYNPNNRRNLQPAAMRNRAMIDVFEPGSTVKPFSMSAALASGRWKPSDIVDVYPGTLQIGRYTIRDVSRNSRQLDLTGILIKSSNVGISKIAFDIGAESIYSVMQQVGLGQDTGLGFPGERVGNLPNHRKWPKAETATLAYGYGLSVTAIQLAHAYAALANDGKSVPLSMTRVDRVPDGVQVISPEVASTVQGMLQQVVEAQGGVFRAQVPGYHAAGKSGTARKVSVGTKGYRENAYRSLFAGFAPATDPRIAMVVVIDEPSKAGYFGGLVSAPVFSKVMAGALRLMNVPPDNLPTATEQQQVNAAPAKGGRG
Summary of the method: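 Purified PBP was preincubated with inhibitor (E. coli PBP3 1.5 μM, 30 min; P. aeruginosa PBP3 0.75 μM, A. baumannii PBP3 0.2 μM and PBP1a 1 μM, 15 min), then Bocillin-FL (0.1 μM; 0.05 μM for PBP1a) added and FP read up to 60 min. EC50 = 50% loss of bound probe.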

[2] = test system: P. aeruginosa ATCC 27853; test: microbe, parasite or virus in culture; assay type: cell-based; settings: Pseudomonas aeruginosa, ATCC27853, read-out: Minimum inhibitory concentration, P. aeruginosa ATCC 27853
[3] = test system: P. aeruginosa CDC-0095; test: microbe, parasite or virus in culture; assay type: cell-based; settings: Pseudomonas aeruginosa, CDC0095, read-out: Minimum inhibitory concentration, P. aeruginosa CDC-0095
[4] = test system: A. baumannii CDC-0036; test: microbe, parasite or virus in culture; assay type: cell-based; settings: Acinetobacter baumannii, CDC0036, read-out: MIC, A. baumannii CDC-0036
[5] = test system: A. baumannii CDC-0045; test: microbe, parasite or virus in culture; assay type: cell-based; settings: Acinetobacter baumannii, CDC0045, read-out: MIC, A. baumannii CDC-0045
[6] = test system: B. thailandensis ATCC 700388; test: microbe, parasite or virus in culture; assay type: cell-based; settings: Burkholderia thailandensis, ATCC700388, read-out: Minimum inhibitory concentration (MIC), B. thailandensis ATCC 700388
[7] = test system: B. humptydooensis ATCC BAA-2767; test: microbe, parasite or virus in culture; assay type: cell-based; settings: Burkholderia humptydooensis, ATCCBAA2767, read-out: Minimum inhibitory concentration (MIC), B. humptydooensis ATCC BAA-2767
[8] = test system: P. aeruginosa CDC-0110; test: microbe, parasite or virus in culture; assay type: cell-based; settings: Pseudomonas aeruginosa, CDC0110, read-out: Minimum inhibitory concentration, P. aeruginosa CDC-0110
[9] = test system: N. gonorrhoeae FA1090; test: Liquid broth MIC in Fastidious broth; settings: Neisseria gonorrhoeae
[10] = test system: N. gonorrhoeae WHO G; test: Liquid broth MIC in Fastidious broth; settings: Neisseria gonorrhoeae
[11] = test system: N. gonorrhoeae WHO L; test: Liquid broth MIC in Fastidious broth; settings: Neisseria gonorrhoeae
[12] = test system: N. gonorrhoeae WHO Q; test: Liquid broth MIC in Fastidious broth; settings: Neisseria gonorrhoeae
[13] = FA1090, read-out: Minimum Inhibitory Concentration, FA 1090
[14] = read-out: Minimum Inhibitory Concentration, WHO G
[15] = read-out: Minimum Inhibitory Concentration, WHO L
[16] = read-out: Minimum Inhibitory Concentration, WHO Q
[17] = FA1090, read-out: Minimum Inhibitory Concentration (MIC), N. gonorrhoeae FA 1090
[18] = read-out: Minimum Inhibitory Concentration (MIC), N. gonorrhoeae WHO G
[19] = read-out: Minimum Inhibitory Concentration (MIC), N. gonorrhoeae WHO L
[20] = read-out: Minimum Inhibitory Concentration (MIC), N. gonorrhoeae WHO Q

Row | SMILES | IC50 [1] | MIC [2] | MIC [3] | MIC [4] | MIC [5] | MIC [6] | MIC [7] | MIC [8] | MIC [9, 13] | MIC [10, 14] | MIC [11, 15] | MIC [12, 16] | MIC [9, 17] | MIC [10, 18] | MIC [11, 19] | MIC [12, 20]
1 | O=C(NCCCS(=O)(=O)N1CCN(C(=O)NC(C(=O)N[C@H]2Cc3ccc(F)c(C(=O)O)c3OB2O)c2cc(F)c(O)c(O)c2Cl)C1=O)c1ccncc1 (stereo partly drawn) [Example 272, (3R)-3-(2-(2-chloro-5-fluoro-3,4-dihydroxyphenyl)-2-(3-((3-(isonicotinamido)propyl)sulfonyl)-2-oxoimidazolidine-1-carboxamido)acetamido)-7-fluoro-2-hydroxy-3,4-dihydro-2H-benzo[e][1,2]oxaborinine-8-carboxylic acid] | < 10 µM | 2 to 4 µg/mL (≈ 2.56 to 5.12 µM) | > 128 µg/mL | 2 to 4 µg/mL (≈ 2.56 to 5.12 µM) | < 1 µg/mL | 2 to 4 µg/mL (≈ 2.56 to 5.12 µM) | 2 to 4 µg/mL (≈ 2.56 to 5.12 µM) | 2 to 4 µg/mL (≈ 2.56 to 5.12 µM) | 4 to 8 µg/mL (≈ 5.12 to 10.2 µM) | 16 to 32 µg/mL (≈ 20.5 to 41 µM) | > 64 µg/mL | 16 to 32 µg/mL (≈ 20.5 to 41 µM) |  |  |  | 
2 | O=C(CN1CCN(C(=O)NC(C(=O)N[C@H]2Cc3ccc(F)c(C(=O)O)c3OB2O)c2cc(F)c(O)c(O)c2Cl)C(=O)C1=O)Nc1cccc(O)c1 (stereo partly drawn) [Example 231, (3R)-3-(2-(2-chloro-5-fluoro-3,4-dihydroxyphenyl)-2-(4-(2-((3-hydroxyphenyl)amino)-2-oxoethyl)-2,3-dioxopiperazine-1-carboxamido)acetamido)-7-fluoro-2-hydroxy-3,4-dihydro-2H-benzo[e][1,2]oxaborinine-8-carboxylic acid] | < 10 µM | < 1 µg/mL | 2 to 4 µg/mL (≈ 2.73 to 5.47 µM) | 2 to 4 µg/mL (≈ 2.73 to 5.47 µM) | 2 to 4 µg/mL (≈ 2.73 to 5.47 µM) | 2 to 4 µg/mL (≈ 2.73 to 5.47 µM) | 8 to 16 µg/mL (≈ 10.9 to 21.9 µM) | < 1 µg/mL |  |  |  |  | 1 to 2 µg/mL (≈ 1.37 to 2.73 µM) | 4 to 8 µg/mL (≈ 5.47 to 10.9 µM) | > 64 µg/mL | 16 to 32 µg/mL (≈ 21.9 to 43.7 µM)
3 | O=C(CN1CCN(C(=O)NC(C(=O)N[C@H]2Cc3ccc(F)c(C(=O)O)c3OB2O)c2cc(F)c(O)c(O)c2Cl)C(=O)C1=O)Nc1ccc(O)cc1 (stereo partly drawn) [Example 230, (3R)-3-(2-(2-chloro-5-fluoro-3,4-dihydroxyphenyl)-2-(4-(2-((4-hydroxyphenyl)amino)-2-oxoethyl)-2,3-dioxopiperazine-1-carboxamido)acetamido)-7-fluoro-2-hydroxy-3,4-dihydro-2H-benzo[e][1,2]oxaborinine-8-carboxylic acid] | < 10 µM | < 1 µg/mL | < 1 µg/mL | 2 to 4 µg/mL (≈ 2.73 to 5.47 µM) | < 1 µg/mL | 2 to 4 µg/mL (≈ 2.73 to 5.47 µM) | 2 to 4 µg/mL (≈ 2.73 to 5.47 µM) | < 1 µg/mL |  |  |  |  | 1 to 2 µg/mL (≈ 1.37 to 2.73 µM) | 4 to 8 µg/mL (≈ 5.47 to 10.9 µM) | 16 to 32 µg/mL (≈ 21.9 to 43.7 µM) | 16 to 32 µg/mL (≈ 21.9 to 43.7 µM)
4 | O=C(NCCCN1CCN(C(=O)NC(C(=O)N[C@H]2Cc3ccc(F)c(C(=O)O)c3OB2O)c2cc(F)c(O)c(O)c2Cl)C(=O)C1=O)c1ccc(O)cc1 (stereo partly drawn) [Example 203, (3R)-3-(2-(2-chloro-5-fluoro-3,4-dihydroxyphenyl)-2-(4-(3-(4-hydroxybenzamido)propyl)-2,3-dioxopiperazine-1-carboxamido)acetamido)-7-fluoro-2-hydroxy-3,4-dihydro-2H-benzo[e][1,2]oxaborinine-8-carboxylic acid] | < 10 µM | < 1 µg/mL | 2 to 4 µg/mL (≈ 2.63 to 5.26 µM) | < 1 µg/mL | < 1 µg/mL | < 1 µg/mL | < 1 µg/mL | < 1 µg/mL |  |  |  |  | < 1 µg/mL | 4 to 8 µg/mL (≈ 5.26 to 10.5 µM) | 16 to 32 µg/mL (≈ 21.1 to 42.1 µM) | 16 to 32 µg/mL (≈ 21.1 to 42.1 µM)
5 | O=C(CN1CCN(C(=O)NC(C(=O)N[C@H]2Cc3ccc(F)c(C(=O)O)c3OB2O)c2cc(F)c(O)c(O)c2Cl)C(=O)C1=O)Nc1cccnc1 (stereo partly drawn) [Example 234, (3R)-3-(2-(2-chloro-5-fluoro-3,4-dihydroxyphenyl)-2-(2,3-dioxo-4-(2-oxo-2-(pyridin-3-ylamino)ethyl)piperazine-1-carboxamido)acetamido)-7-fluoro-2-hydroxy-3,4-dihydro-2H-benzo[e][1,2]oxaborinine-8-carboxylic acid] | < 10 µM | 2 to 4 µg/mL (≈ 2.79 to 5.58 µM) | 32 to 64 µg/mL (≈ 44.6 to 89.3 µM) | 2 to 4 µg/mL (≈ 2.79 to 5.58 µM) | < 1 µg/mL | 8 to 16 µg/mL (≈ 11.2 to 22.3 µM) | < 1 µg/mL | < 1 µg/mL |  |  |  |  | 1 to 2 µg/mL (≈ 1.4 to 2.79 µM) | 4 to 8 µg/mL (≈ 5.58 to 11.2 µM) | > 64 µg/mL | 16 to 32 µg/mL (≈ 22.3 to 44.6 µM)
6 | O=C(NCCCN1CCN(C(=O)NC(C(=O)N[C@H]2Cc3ccc(F)c(C(=O)O)c3OB2O)c2cc(F)c(O)c(O)c2Cl)C1=O)c1nccs1 (stereo partly drawn) [Example 257, (3R)-3-(2-(2-chloro-5-fluoro-3,4-dihydroxyphenyl)-2-(2-oxo-3-(3-(thiazole-2-carboxamido)propyl)imidazolidine-1-carboxamido)acetamido)-7-fluoro-2-hydroxy-3,4-dihydro-2H-benzo[e][1,2]oxaborinine-8-carboxylic acid] | < 10 µM | 2 to 4 µg/mL (≈ 2.77 to 5.53 µM) | 2 to 4 µg/mL (≈ 2.77 to 5.53 µM) | 2 to 4 µg/mL (≈ 2.77 to 5.53 µM) | < 1 µg/mL | < 1 µg/mL | 2 to 4 µg/mL (≈ 2.77 to 5.53 µM) | 2 to 4 µg/mL (≈ 2.77 to 5.53 µM) | 4 to 8 µg/mL (≈ 5.53 to 11.1 µM) | > 64 µg/mL | > 64 µg/mL | > 64 µg/mL |  |  |  | 
7 | O=C(CN1CCN(C(=O)NC(C(=O)N[C@H]2Cc3ccc(F)c(C(=O)O)c3OB2O)c2cc(F)c(O)c(O)c2Cl)C(=O)C1=O)Nc1ccncc1 (stereo partly drawn) [Example 233, (3R)-3-(2-(2-chloro-5-fluoro-3,4-dihydroxyphenyl)-2-(2,3-dioxo-4-(2-oxo-2-(pyridin-4-ylamino)ethyl)piperazine-1-carboxamido)acetamido)-7-fluoro-2-hydroxy-3,4-dihydro-2H-benzo[e][1,2]oxaborinine-8-carboxylic acid] | < 10 µM | < 1 µg/mL | 2 to 4 µg/mL (≈ 2.79 to 5.58 µM) | 2 to 4 µg/mL (≈ 2.79 to 5.58 µM) | 2 to 4 µg/mL (≈ 2.79 to 5.58 µM) | 2 to 4 µg/mL (≈ 2.79 to 5.58 µM) | < 1 µg/mL | < 1 µg/mL |  |  |  |  | 1 to 2 µg/mL (≈ 1.4 to 2.79 µM) | 4 to 8 µg/mL (≈ 5.58 to 11.2 µM) | > 64 µg/mL | 16 to 32 µg/mL (≈ 22.3 to 44.6 µM)
